Results reported in patent US20250215012A1, “IKZF2 DEGRADERS AND USES THEREOF” (REGENTS OF THE UNIVERSITY OF MICHIGAN, priority 2022, published 2025).

Target: IKZF2 (Homo sapiens (Human), UniProt Q96SW2+Q9UKS7)
Assay: IKZF2 HiBiT Assay (Jurkat-IKZF2-HiBiT cell line)
Assay type: cell-based
Conditions: Jurkat-IKZF2-HiBiT cells, 24 hours; for DC50: read-out: HiBit assay degradation analysis DC50; for Dmax: read-out: HiBit assay degradation analysis Dmax
Method in brief: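 Jurkat cells carrying HiBiT-tagged IKZF2 were exposed to serially diluted compound for 24 h at 37 °C. Remaining IKZF2 was measured by Nano-Glo HiBiT lytic luminescence after 10-20 min at room temperature. Signal was normalized to DMSO, and IC50 came from a four-parameter variable-slope fit.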

Chain of IKZF2 (Q9UKS7 whole entry): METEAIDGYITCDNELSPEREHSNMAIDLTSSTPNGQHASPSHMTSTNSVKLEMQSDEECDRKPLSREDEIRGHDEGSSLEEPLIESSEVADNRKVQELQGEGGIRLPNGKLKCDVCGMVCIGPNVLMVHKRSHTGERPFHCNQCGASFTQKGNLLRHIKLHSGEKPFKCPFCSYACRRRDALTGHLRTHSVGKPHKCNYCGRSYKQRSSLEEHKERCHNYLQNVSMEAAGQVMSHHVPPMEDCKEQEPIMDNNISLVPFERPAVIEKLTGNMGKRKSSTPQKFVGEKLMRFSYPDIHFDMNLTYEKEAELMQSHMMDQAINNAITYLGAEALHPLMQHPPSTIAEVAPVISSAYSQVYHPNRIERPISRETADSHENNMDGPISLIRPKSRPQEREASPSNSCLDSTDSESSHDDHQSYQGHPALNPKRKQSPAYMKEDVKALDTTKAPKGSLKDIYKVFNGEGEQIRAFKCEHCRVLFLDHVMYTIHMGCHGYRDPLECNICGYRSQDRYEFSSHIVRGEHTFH
Chain of IKZF2 (Q96SW2 whole entry): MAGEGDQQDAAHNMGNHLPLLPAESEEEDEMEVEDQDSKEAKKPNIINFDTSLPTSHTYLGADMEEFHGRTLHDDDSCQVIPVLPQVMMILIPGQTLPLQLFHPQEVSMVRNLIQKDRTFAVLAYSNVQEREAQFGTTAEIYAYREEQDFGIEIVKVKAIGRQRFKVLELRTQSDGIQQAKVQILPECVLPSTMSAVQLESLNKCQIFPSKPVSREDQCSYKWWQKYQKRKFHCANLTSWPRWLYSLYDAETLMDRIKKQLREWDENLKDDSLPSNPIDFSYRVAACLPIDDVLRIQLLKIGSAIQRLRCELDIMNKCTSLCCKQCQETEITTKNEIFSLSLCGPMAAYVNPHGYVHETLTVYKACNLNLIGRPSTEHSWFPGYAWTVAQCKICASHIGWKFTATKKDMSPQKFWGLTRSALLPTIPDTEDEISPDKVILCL
Chain of IKZF2 (Q16531 whole entry partner): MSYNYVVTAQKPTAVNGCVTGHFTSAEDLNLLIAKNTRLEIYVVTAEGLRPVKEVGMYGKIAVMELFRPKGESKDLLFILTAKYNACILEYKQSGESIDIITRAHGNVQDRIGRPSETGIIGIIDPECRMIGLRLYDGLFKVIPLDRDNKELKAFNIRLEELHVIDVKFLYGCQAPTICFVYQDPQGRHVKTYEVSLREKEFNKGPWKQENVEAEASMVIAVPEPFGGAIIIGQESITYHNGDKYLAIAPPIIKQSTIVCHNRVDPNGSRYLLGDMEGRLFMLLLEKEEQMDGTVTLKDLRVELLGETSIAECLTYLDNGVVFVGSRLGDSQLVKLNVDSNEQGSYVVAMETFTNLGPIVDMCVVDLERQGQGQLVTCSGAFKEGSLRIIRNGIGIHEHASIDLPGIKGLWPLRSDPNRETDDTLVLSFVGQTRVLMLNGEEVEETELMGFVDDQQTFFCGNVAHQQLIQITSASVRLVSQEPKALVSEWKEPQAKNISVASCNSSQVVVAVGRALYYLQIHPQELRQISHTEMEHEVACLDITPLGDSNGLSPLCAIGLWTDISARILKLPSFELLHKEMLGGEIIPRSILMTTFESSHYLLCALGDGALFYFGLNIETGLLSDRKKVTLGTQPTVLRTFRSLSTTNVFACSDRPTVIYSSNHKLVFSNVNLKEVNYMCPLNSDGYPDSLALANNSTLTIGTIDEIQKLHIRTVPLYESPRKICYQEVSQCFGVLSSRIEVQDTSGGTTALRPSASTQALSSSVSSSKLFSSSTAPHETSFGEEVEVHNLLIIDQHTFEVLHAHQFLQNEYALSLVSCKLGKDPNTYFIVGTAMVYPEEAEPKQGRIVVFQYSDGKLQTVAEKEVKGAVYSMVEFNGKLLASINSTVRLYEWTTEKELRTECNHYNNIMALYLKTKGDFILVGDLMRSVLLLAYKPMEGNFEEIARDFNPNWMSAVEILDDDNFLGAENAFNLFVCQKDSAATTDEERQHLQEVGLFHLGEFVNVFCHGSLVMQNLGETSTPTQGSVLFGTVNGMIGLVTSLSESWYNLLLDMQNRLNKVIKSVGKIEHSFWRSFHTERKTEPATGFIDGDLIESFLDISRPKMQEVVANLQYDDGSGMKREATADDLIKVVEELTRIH

Structure (SMILES) | DC50 | Dmax
O=C1CCC(N2Cc3c(ccc4c3OCC43CCN(Cc4cnn(Cc5ccccc5F)c4)CC3)C2=O)C(=O)N1 (centres unmarked) [Compound A239, 3-(1′-((1-(2-fluorobenzyl)-1H-pyrazol-4-yl)methyl)-6-oxo-6,8-dihydro-2H,7H-spiro[furo[2,3-e]isoindole-3,4′-piperidin]-7-yl)piperidine-2,6-dione] | < 50 nM | 60 to 80%
O=C1CCC(N2Cc3c(ccc4c3OCC43CCN(Cc4cccc(-c5ccccc5)c4)CC3)C2=O)C(=O)N1 (centres unmarked) [Compound A102, 3-(1′-([1,1′-biphenyl]-3-ylmethyl)-6-oxo-6,8-dihydro-2H,7H-spiro[furo[2,3-e]isoindole-3,4′-piperidin]-7-yl)piperidine-2,6-dione] | 200 to 500 nM | 40 to 60%
O=C1CCC(N2Cc3c(ccc4c3OCC43CCN(Cc4ccnn4C4CCOCC4)CC3)C2=O)C(=O)N1 (centres unmarked) [Compound A255, 3-(6-oxo-1′-((1-(tetrahydro-2H-pyran-4-yl)-1H-pyrazol-5-yl)methyl)-6,8-dihydro-2H,7H-spiro[furo[2,3-e]isoindole-3,4′-piperidin]-7-yl)piperidine-2,6-dione] | > 500 nM | < 40%
Cc1cc2c(CN3CCC4(CC3)COc3c4ccc4c3CN(C3CCC(=O)NC3=O)C4=O)cccc2[nH]1 (centres unmarked) [Compound A121, 3-(1′-((2-methyl-1H-indol-4-yl)methyl)-6-oxo-6,8-dihydro-2H,7H-spiro[furo[2,3-e]isoindole-3,4′-piperidin]-7-yl)piperidine-2,6-dione] | < 50 nM | 60 to 80%
O=C1CCC(N2Cc3c(ccc4c3OCC43CCN(Cc4n[nH]c5ccccc45)CC3)C2=O)C(=O)N1 (centres unmarked) [Compound A227, 3-(1′-((1H-indazol-3-yl)methyl)-6-oxo-6,8-dihydro-2H,7H-spiro[furo[2,3-e]isoindole-3,4′-piperidin]-7-yl)piperidine-2,6-dione] | > 500 nM | 40 to 60%
O=C1CCC(N2Cc3c(ccc4c3OCC43CCN(Cc4ccnc(Cl)c4)CC3)C2=O)C(=O)N1 (centres unmarked) [Compound A250, 3-(1′-((2-chloropyridin-4-yl)methyl)-6-oxo-6,8-dihydro-2H,7H-spiro[furo[2,3-e]isoindole-3,4′-piperidin]-7-yl)piperidine-2,6-dione] | > 500 nM | < 40%
O=C1CCC(N2Cc3c(ccc4c3OCC43CCN(C[C@H]4C[C@@H]4c4ccccc4)CC3)C2=O)C(=O)N1 (relative stereo) [Compound A180, 3-(6-oxo-1′-((trans-2-phenylcyclopropyl)methyl)-6,8-dihydro-2H,7H-spiro[furo[2,3-e]isoindole-3,4′-piperidin]-7-yl)piperidine-2,6-dione] | > 500 nM | < 40%
O=C1CC[C@H](N2Cc3c(ccc4c3OCC43CCN(Cc4cccc(-c5cnn(C[C@@H]6COCCO6)c5)c4)CC3)C2=O)C(=O)N1 [Compound A272, (S)-3-(1′-(3-(1-(((R)-1,4-dioxan-2-yl)methyl)-1H-pyrazol-4-yl)benzyl)-6-oxo-6,8-dihydro-2H,7H-spiro[furo[2,3-e]isoindole-3,4′-piperidin]-7-yl)piperidine-2,6-dione] | 50 to 200 nM | 60 to 80%
CN(C)C(=O)c1ccc(CN2CCC3(CC2)COc2c3ccc3c2CN(C2CCC(=O)NC2=O)C3=O)cc1 (centres unmarked) [Compound A201, 4-((7-(2,6-dioxopiperidin-3-yl)-6-oxo-7,8-dihydro-2H,6H-spiro[furo[2,3-e]isoindole-3,4′-piperidin]-1′-yl)methyl)-N,N-dimethylbenzamide] | > 500 nM | < 40%
O=C1CCC(N2Cc3c(ccc4c3OCC43CCN(Cc4cncc(Cl)c4)CC3)C2=O)C(=O)N1 (centres unmarked) [Compound A248, 3-(1′-((5-chloropyridin-3-yl)methyl)-6-oxo-6,8-dihydro-2H,7H-spiro[furo[2,3-e]isoindole-3,4′-piperidin]-7-yl)piperidine-2,6-dione] | > 500 nM | < 40%
O=C1CCC(N2Cc3c(ccc4c3OCC43CCN(Cc4ccc5c(c4)OC(F)(F)O5)CC3)C2=O)C(=O)N1 (centres unmarked) [Compound A193, 3-(1′-((2,2-difluorobenzo[d][1,3]dioxol-5-yl)methyl)-6-oxo-6,8-dihydro-2H,7H-spiro[furo[2,3-e]isoindole-3,4′-piperidin]-7-yl)piperidine-2,6-dione] | > 500 nM | < 40%
O=C1CCC(N2Cc3c(ccc4c3OCC43CCN(Cc4ccc5ccncc5c4)CC3)C2=O)C(=O)N1 (centres unmarked) [Compound A45] | 200 to 500 nM | 40 to 60%
O=C1CCC(N2Cc3c(ccc4c3OCC43CCN(Cc4ccccc4-n4ccnc4)CC3)C2=O)C(=O)N1 (centres unmarked) [Compound A149, 3-(1′-(2-(1H-imidazol-1-yl)benzyl)-6-oxo-6,8-dihydro-2H,7H-spiro[furo[2,3-e]isoindole-3,4′-piperidin]-7-yl)piperidine-2,6-dione] | > 500 nM | < 40%
O=C1CCC(N2Cc3c(ccc4c3OCC43CCN(Cc4cccc(C(=O)O)c4)CC3)C2=O)C(=O)N1 (centres unmarked) [Compound A99, 3-((7-(2,6-dioxopiperidin-3-yl)-6-oxo-7,8-dihydro-2H,6H-spiro[furo[2,3-e]isoindole-3,4′-piperidin]-1′-yl)methyl)benzoic acid] | > 500 nM | < 40%
O=C1CCC(N2Cc3c(ccc4c3OCC43CCN(Cc4cccn5ccnc45)CC3)C2=O)C(=O)N1 (centres unmarked) [Compound A77, 3-(1′-(imidazo[1,2-a]pyridin-8-ylmethyl)-6-oxo-6,8-dihydro-2H,7H-spiro[furo[2,3-e]isoindole-3,4′-piperidin]-7-yl)piperidine-2,6-dione] | > 500 nM | 40 to 60%
O=C1CCC(N2Cc3c(ccc4c3OCC43CCN(CC4Cc5ccccc5C4)CC3)C2=O)C(=O)N1 (centres unmarked) [Compound A22, 3-(1′-((2,3-dihydro-1H-inden-2-yl)methyl)-6-oxo-6,8-dihydro-2H,7H-spiro[furo[2,3-e]isoindole-3,4′-piperidin]-7-yl)piperidine-2,6-dione] | > 500 nM | < 40%
O=C1CCC(N2Cc3c(ccc4c3OCC43CCN(Cc4cccc(-c5cnn(C6CCOCC6)c5)c4)CC3)C2=O)C(=O)N1 (centres unmarked) [Compound A147, 3-(6-oxo-1′-(3-(1-(tetrahydro-2H-pyran-4-yl)-1H-pyrazol-4-yl)benzyl)-6,8-dihydro-2H,7H-spiro[furo[2,3-e]isoindole-3,4′-piperidin]-7-yl)piperidine-2,6-dione] | < 50 nM | 60 to 80%
O=C1CCC(N2Cc3c(ccc4c3OCC43CCN(Cc4cccc5c4CCCO5)CC3)C2=O)C(=O)N1 (centres unmarked) [Compound A218, 3-(1′-(chroman-5-ylmethyl)-6-oxo-6,8-dihydro-2H,7H-spiro[furo[2,3-e]isoindole-3,4′-piperidin]-7-yl)piperidine-2,6-dione] | < 50 nM | 60 to 80%
O=C1CCC(N2Cc3c(ccc4c3OCC43CCN(Cc4cccc5[nH]cc(Cl)c45)CC3)C2=O)C(=O)N1 (centres unmarked) [Compound A141, 3-(1′-((3-chloro-1H-indol-4-yl)methyl)-6-oxo-6,8-dihydro-2H,7H-spiro[furo[2,3-e]isoindole-3,4′-piperidin]-7-yl)piperidine-2,6-dione] | < 50 nM | 60 to 80%
O=C1CCC(N2Cc3c(ccc4c3OCC43CCN(Cc4ccc5[nH]cnc5c4)CC3)C2=O)C(=O)N1 (centres unmarked) [Compound A70, 3-(1′-((1H-benzo[d]imidazol-5-yl)methyl)-6-oxo-6,8-dihydro-2H,7H-spiro[furo[2,3-e]isoindole-3,4′-piperidin]-7-yl)piperidine-2,6-dione] | 200 to 500 nM | 60 to 80%
O=C1CCC(N2Cc3c(ccc4c3OCC43CCN(Cc4cccc5c4OCO5)CC3)C2=O)C(=O)N1 (centres unmarked) [Compound A225, 3-(1′-(benzo[d][1,3]dioxol-4-ylmethyl)-6-oxo-6,8-dihydro-2H,7H-spiro[furo[2,3-e]isoindole-3,4′-piperidin]-7-yl)piperidine-2,6-dione] | > 500 nM | 40 to 60%
CC1(C)CCc2cccc(CN3CCC4(CC3)COc3c4ccc4c3CN(C3CCC(=O)NC3=O)C4=O)c2O1 (centres unmarked) [Compound A327, 3-(1′-((2,2-dimethylchroman-8-yl)methyl)-6-oxo-6,8-dihydro-2H,7H-spiro[furo[2,3-e]isoindole-3,4′-piperidin]-7-yl)piperidine-2,6-dione] | 50 to 200 nM | 60 to 80%
CCOc1ccc(CN2CCC3(CC2)COc2c3ccc3c2CN(C2CCC(=O)NC2=O)C3=O)cn1 (centres unmarked) [Compound A202, 3-(1′-((6-ethoxypyridin-3-yl)methyl)-6-oxo-6,8-dihydro-2H,7H-spiro[furo[2,3-e]isoindole-3,4′-piperidin]-7-yl)piperidine-2,6-dione] | > 500 nM | < 40%
O=C1CCC(N2Cc3c(ccc4c3OCC43CCN(Cc4cnc(-c5ccccc5)s4)CC3)C2=O)C(=O)N1 (centres unmarked) [Compound A81, 3-(6-oxo-1′-((2-phenylthiazol-5-yl)methyl)-6,8-dihydro-2H,7H-spiro[furo[2,3-e]isoindole-3,4′-piperidin]-7-yl)piperidine-2,6-dione] | > 500 nM | < 40%
CC(C)n1cc(-c2cccc(CN3CCC4(CC3)COc3c4ccc4c3CN(C3CCC(=O)NC3=O)C4=O)c2)cn1 (centres unmarked) [Compound A146, 3-(1′-(3-(1-isopropyl-1H-pyrazol-4-yl)benzyl)-6-oxo-6,8-dihydro-2H,7H-spiro[furo[2,3-e]isoindole-3,4′-piperidin]-7-yl)piperidine-2,6-dione] | < 50 nM | 60 to 80%
O=C1CCC(N2Cc3c(ccc4c3OCCC43CCNCC3)C2=O)C(=O)N1 (centres unmarked) [Compound A2, 3-(7′-oxo-2′,3′,7′,9′-tetrahydro-8′H-spiro[piperidine-4,4′-pyrano[2,3-e]isoindol]-8′-yl)piperidine-2,6-dione] | – | < 40%
CCn1cc(CN2CCC3(CC2)COc2c3ccc3c2CN(C2CCC(=O)NC2=O)C3=O)cn1 (centres unmarked) [Compound A229, 3-(1′-((1-ethyl-1H-pyrazol-4-yl)methyl)-6-oxo-6,8-dihydro-2H,7H-spiro[furo[2,3-e]isoindole-3,4′-piperidin]-7-yl)piperidine-2,6-dione] | > 500 nM | 40 to 60%
